Key:
Phospho Src(Y416) = target: T1, Phospho Src(Y416) (Homo sapiens, UniProt P12931); experiment: Phospho Src(Y416) Sandwich ELISA; type: cell-based; conditions: Panc1; read-out: pSrc EC50 (μM) Panc1
T1 construct: endogenous in cells; host or cells: Panc1
Experimental: E. Phospho Src(Y416) Sandwich ELISA
Phospho Src(Y416) Sandwich ELISA kit was obtained from Cell Signaling Tech.
(i) Reagent Preparation • 1. All microwell strips were brought to rt before use. • 2. 1× Wash Buffer was prepared by diluting 20× Wash Buffer (included in each PathScan® Sandwich ELISA Kit) in MilliQ® water or equivalently purified water. • 3. 1× Cell Lysis Buffer from CST #9803: 20 mM Tris (pH 7.5), 150 mM NaCl, 1 mM ethylene diamine tetraacetate (EDTA), 1 mM ethylene glycol-bis(2-aminoethyl)-N,N,N′,N′-tetraacetic acid (EGTA), 1% Triton™ X-100, 2.5 mM sodium pyrophosphate, 1 mM b-glycerophosphate, 1 mM Na3VO4, 1 μg/mL leupeptin. This buffer was stored at 4° C. for short-term use (1-2 weeks).
(ii) Preparing Cell Lysates • 1. The media was aspirated. The cells were treated by adding fresh media containing inhibitor for 1 h. The compound of Example 214 was used as reference. • 2. The cells were harvested under non-denaturing conditions by removing media and rinsing cells once with ice-cold PBS. • 3. PBS was removed, 0.5 mL ice-cold 1× Cell Lysis Buffer plus 1 mM phenylmethylsulfonylfluoride (PMSF) was added to each plate (10 cm in diameter) and the plate incubated on ice for 5 min. • 4. The cells were scraped off of the plate, transferred to an appropriate tube, and kept on ice. • 5. The lysates were sonicated on ice. • 6. Microcentrifugation was performed for 10 min at 4° C. and the supernatant transferred to a new tube. The supernatant was the cell lysate and was stored at −80° C. in single-use aliquots.
(iii) Test Procedure • 1. After the microwell strips reached rt, the required number of microwells were broken off. The microwells were placed in the strip holder. Unused microwells were resealed and stored at 4° C. immediately. • 2. 100 μL of Sample Diluent (supplied in each PathScan® Sandwich ELISA Kit, blue color) was added to a micro centrifuge tube. 100 μL of cell lysate was transferred into the tube and vortexed for a few seconds. […] Individual data sheets for each kit provided information regarding an appropriate dilution factor for lysates and kit assay results. However, dilution factors were titrated when specific cell lysates are used. • 3. 100 μL of each diluted cell lysate were added to the appropriate well. It was then sealed with tape and pressed firmly onto top of microwells. The plate was incubated for 2 h at 37° C. Alternatively, the plate was incubated overnight at 4° C., which gave the best detection of target protein. • 4. The tape was gently removed and the wells washed: • a. The plate contents were discarded into a receptacle. • b. Each well was washed 4 times with 1× Wash Buffer, 200 μL. • c. For each wash, plates were struck on fresh towels hard enough to remove the residual solution in each well, but wells were not allowed to completely dry at any time. • d. The underside of all wells was cleaned with a lint-free tissue. • 5. 100 μL of Detection Antibody (green color) was added to each well, sealed with tape and the plate incubated for 1 h at 37° C. • 6. The wash procedure was repeated as in Step 4. • 7. 100 μL of HRP-linked secondary antibody (red color) was added to each well, sealed with tape and the plate incubated plate for 30 min at 37° C. • 8. The wash procedure was repeated as in Step 4. • 9. 100 μL of TMB Substrate was added to each well, sealed with tape and the plate incubated for 10 min at 37° C. or 30 min at 25° C. • 10. 100 μL of STOP Solution was added to each well and shaken gently for a few seconds. Initial color of positive reaction was blue, which changed to yellow upon addition of STOP Solution. • 11. The results were read. • a. Visual Determination—read within 30 min after adding STOP Solution. • b. Spectrophotometric Determination—the underside of wells were wiped with a lint-free tissue and absorbance read at 450 nm within 30 min after adding STOP Solution.

AURKB (Aurora B) enzyme = target: T2, AURKB (Aurora B) enzyme (Homo sapiens, UniProt Q96GD4); experiment: Aurora B HTRF assay; type: biochemical; conditions: read-out: AuroraB IC50
T2 construct: purchased Invitrogen PVR 130
T2 sequence (Q96GD4 whole entry): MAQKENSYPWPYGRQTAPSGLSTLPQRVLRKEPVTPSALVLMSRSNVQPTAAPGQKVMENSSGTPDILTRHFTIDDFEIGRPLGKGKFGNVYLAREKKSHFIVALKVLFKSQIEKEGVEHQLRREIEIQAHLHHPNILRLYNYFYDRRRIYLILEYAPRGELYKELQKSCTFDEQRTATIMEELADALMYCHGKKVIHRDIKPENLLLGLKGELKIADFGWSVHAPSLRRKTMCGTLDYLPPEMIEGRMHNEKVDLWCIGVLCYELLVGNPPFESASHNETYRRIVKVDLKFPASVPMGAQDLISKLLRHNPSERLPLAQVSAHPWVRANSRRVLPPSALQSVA
In short: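 HTRF kinase assay with 5 nM Aurora B and 50 nM ULight-PLK (Ser137) peptide, with a reagent at 30 μM final; 1 h at rt. Reaction stopped with EDTA, and phospho-peptide detected with 2 nM Eu-anti-P-PLK(Ser137) antibody after 1 h at rt, read as HTRF.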

Recombinant Src enzyme = target: T3, Recombinant Src enzyme (Homo sapiens, UniProt P12931); experiment: Src HTRF assay; type: biochemical
T3 construct: purchased Millipore 14-326; host or cells: Sf21 insect cells
T3 sequence (P12931 whole entry): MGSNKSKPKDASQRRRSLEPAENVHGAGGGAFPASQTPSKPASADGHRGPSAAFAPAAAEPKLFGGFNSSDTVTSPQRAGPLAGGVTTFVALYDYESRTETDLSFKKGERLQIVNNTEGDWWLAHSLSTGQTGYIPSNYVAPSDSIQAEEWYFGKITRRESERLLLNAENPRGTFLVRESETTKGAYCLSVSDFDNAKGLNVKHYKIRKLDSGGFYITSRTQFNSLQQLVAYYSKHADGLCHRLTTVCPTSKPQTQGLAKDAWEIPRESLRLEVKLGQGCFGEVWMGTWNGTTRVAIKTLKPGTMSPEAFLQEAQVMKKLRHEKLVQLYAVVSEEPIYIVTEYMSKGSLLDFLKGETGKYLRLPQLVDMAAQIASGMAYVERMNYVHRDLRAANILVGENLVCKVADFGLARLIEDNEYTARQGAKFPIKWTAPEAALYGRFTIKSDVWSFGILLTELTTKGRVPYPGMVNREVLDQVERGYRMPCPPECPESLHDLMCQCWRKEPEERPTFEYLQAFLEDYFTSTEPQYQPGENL
In short: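 Sf21-expressed recombinant Src at 5 nM final with biotinylated N-terminally tagged Tyk2 peptide substrate at 0.5 μM final; a component freshly made in enzyme assay buffer pH7.4 was used at 10 μM final. Buffer, supplements, compound handling and procedure as in the FAK HTRF assay; dasatinib included.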

recombinant human FAK1 = target: T4, recombinant human FAK1 (Homo sapiens, UniProt Q05397); experiment: FAK1 HTRF assay; type: biochemical
T4 construct: fused on or other part: N-terminal 6xHis tag
T4 sequence (Q05397 422-680 limits assumed): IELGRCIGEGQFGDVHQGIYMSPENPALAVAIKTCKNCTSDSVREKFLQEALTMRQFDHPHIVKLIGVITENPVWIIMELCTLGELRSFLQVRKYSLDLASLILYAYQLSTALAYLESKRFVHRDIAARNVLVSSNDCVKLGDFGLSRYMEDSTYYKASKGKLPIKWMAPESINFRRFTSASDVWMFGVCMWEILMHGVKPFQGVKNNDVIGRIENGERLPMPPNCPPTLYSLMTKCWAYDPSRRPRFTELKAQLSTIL
In short: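 His-tagged human FAK1 (residues 692–end, Sf9-expressed), 10 nM final, with 0.5 μM biotinylated gastrin-precursor Tyr87 peptide and a 10 μM final reagent in pH 7.4 buffer, 45 min at rt. Detection used Eu anti-pTyr antibody plus SA-APC (665/620 nm). Compounds top concentration 10 μM; IC50 from % inhibition.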

[1] = target: T5, FAK phosphorylated at Y397 in HEK-FAK cell line overexpressing human FL FAK protein (Homo sapiens, UniProt Q05397); experiment: Cell based assay, Phospho-FAK ELISA; conditions: HEK stb; read-out: pFAK EC50 (μM) HEK stb
T5 construct: expressed in transfected cells
T5 sequence (Q05397 whole entry): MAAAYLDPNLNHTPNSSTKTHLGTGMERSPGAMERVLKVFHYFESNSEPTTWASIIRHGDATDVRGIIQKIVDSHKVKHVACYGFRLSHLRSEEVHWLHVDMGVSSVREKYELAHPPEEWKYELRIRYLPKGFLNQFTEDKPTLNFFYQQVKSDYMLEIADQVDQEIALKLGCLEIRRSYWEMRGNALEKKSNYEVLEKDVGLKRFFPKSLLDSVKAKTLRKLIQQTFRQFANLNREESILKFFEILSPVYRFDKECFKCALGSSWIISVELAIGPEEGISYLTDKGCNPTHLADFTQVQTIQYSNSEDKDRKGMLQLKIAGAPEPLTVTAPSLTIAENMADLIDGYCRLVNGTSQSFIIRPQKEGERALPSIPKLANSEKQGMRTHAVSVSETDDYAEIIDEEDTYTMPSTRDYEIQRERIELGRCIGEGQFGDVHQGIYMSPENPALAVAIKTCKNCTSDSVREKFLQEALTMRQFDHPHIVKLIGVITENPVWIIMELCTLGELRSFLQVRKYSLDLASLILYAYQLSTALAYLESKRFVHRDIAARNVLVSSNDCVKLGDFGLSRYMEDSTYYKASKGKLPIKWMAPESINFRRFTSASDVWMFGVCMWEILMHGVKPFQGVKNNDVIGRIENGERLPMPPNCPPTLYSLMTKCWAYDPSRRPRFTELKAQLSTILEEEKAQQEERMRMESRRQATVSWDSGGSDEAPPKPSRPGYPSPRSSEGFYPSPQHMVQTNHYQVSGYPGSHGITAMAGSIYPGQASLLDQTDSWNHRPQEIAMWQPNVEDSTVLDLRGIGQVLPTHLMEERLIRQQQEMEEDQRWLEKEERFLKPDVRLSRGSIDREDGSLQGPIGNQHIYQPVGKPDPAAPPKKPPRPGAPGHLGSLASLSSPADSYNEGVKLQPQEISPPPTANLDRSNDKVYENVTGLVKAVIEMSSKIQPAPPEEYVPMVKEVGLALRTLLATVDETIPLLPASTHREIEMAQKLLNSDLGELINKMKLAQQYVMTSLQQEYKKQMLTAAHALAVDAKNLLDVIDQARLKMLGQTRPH
In short: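 Stable HEK293 line overexpressing full-length human FAK, kept under 0.8 mg/mL Zeocin. In lysates, FAK Y397 autophosphorylation was measured by sandwich ELISA: total-FAK capture antibody, biotinylated pY397-specific detection antibody, streptavidin-HRP with TMB substrate.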

T1 sequence (P12931 whole entry): as the sequence (P12931 whole entry) above

| Compound | EC50 (Phospho Src(Y416)) | IC50 (AURKB (Aurora B) enzyme) | IC50 (Recombinant Src enzyme) | IC50 (recombinant human FAK1) | EC50 [1] |
| --- | --- | --- | --- | --- | --- |
| Cc1cc(Nc2ncc3cnn(S(=O)(=O)c4cccc5cccnc45)c3n2)ccc1N1CCC(O)CC1 [Example 406] | > 1 µM | – | – | < 20 nM | – |
| CN(c1ncccc1Cn1ccc2cnc(Nc3ccc(N4CCN5C(=O)CCC5C4)cc3)nc21)S(C)(=O)=O (stereo not shown) [Example 408] | > 1 µM | < 20 nM | – | – | – |
| O=S(=O)(c1cccc2cccnc12)n1ncc2cnc(Nc3ccc(N4CCC(O)CC4)cc3)nc21 [Example 411] | > 1 µM | – | – | < 20 nM | – |
| COC1CCN(c2ccc(Nc3ncc4ccn(S(=O)(=O)c5cccc6cccnc56)c4n3)cc2)CC1 [Example 412] | > 1 µM | < 20 nM | – | < 20 nM | – |
| COc1cc(Nc2ncc3ccn(S(=O)(=O)c4cccc5cccnc45)c3n2)ccc1N1CCOCC1 [Example 432] | > 1 µM | – | – | < 20 nM | – |
| CN(c1ccccc1Cn1ccc2cnc(Nc3ccc(N4CCC(O)CC4)cc3)nc21)S(C)(=O)=O [Example 434] | > 1 µM | < 20 nM | – | < 20 nM | – |
| CC(=O)N1CCN(c2ccc(Nc3ncc4ccn(S(=O)(=O)c5cccc6cccnc56)c4n3)cc2)C[C@@H]1C [Example 449] | > 1 µM | – | – | < 20 nM | – |
| CN(c1ccccc1Cn1ccc2cnc(Nc3ccc(NC(=O)C(C)(C)O)cc3)nc21)S(C)(=O)=O [Example 452] | > 1 µM | – | – | – | > 1 µM |
| CC(=O)OC1CCN(c2ccc(Nc3ncc4c(n3)N(S(=O)(=O)c3cccc5cccnc35)CC4(C)C)cc2)CC1 [Example 453] | > 1 µM | – | – | – | – |
| CC(=O)OC1CCN(c2ccc(Nc3ncc4ccn(S(=O)(=O)c5cccc6cccnc56)c4n3)cc2)CC1 [Example 454] | > 1 µM | – | – | < 20 nM | – |
| CN(c1ccccc1Cn1ccc2cnc(Nc3ccc4[nH]c(=O)oc4c3)nc21)S(C)(=O)=O [Example 457] | > 1 µM | – | – | – | – |
| CC(=O)N1CCN(c2ccc(Nc3ncc4ccn(Cc5ccccc5N(C)S(C)(=O)=O)c4n3)cc2)C[C@H]1C [Example 458] | > 1 µM | – | – | < 20 nM | – |
| CC(=O)N1CCN(c2ccc(Nc3ncc4ccn(Cc5ccccc5N(C)S(C)(=O)=O)c4n3)cc2)CC1 [Example 465] | > 1 µM | < 20 nM | – | < 20 nM | – |
| C[C@H]1CN(c2ccc(Nc3ncc4c(n3)N(S(=O)(=O)c3cccc5cccnc35)CC4(C)C)cc2)CCN1 [Example 473] | > 1 µM | – | – | < 20 nM | – |
| C[C@@H]1CN(c2ccc(Nc3ncc4ccn(Cc5ccccc5N(C)S(C)(=O)=O)c4n3)cc2)CCN1C [Example 486] | > 1 µM | < 20 nM | – | < 20 nM | – |
| CN(c1ccccc1Cn1ccc2cnc(Nc3ccc4c(c3)OCC(=O)N4)nc21)S(C)(=O)=O [Example 539] | > 1 µM | – | – | < 20 nM | – |
| CN(c1ncccc1Cn1ccc2cnc(Nc3ccc(N4CCC(CO)CC4)cc3)nc21)S(C)(=O)=O [Example 559] | > 1 µM | – | – | – | > 1 µM |
| CN(C)C1CN(c2ccc(Nc3ncc4ccn(Cc5cccnc5N(C)S(C)(=O)=O)c4n3)cc2F)C1 [Example 605] | > 1 µM | – | – | – | > 1 µM |
| CN(c1ncccc1Cn1ccc2cnc(Nc3ccc(N4CCN(C5CC5)CC4)cc3)nc21)S(C)(=O)=O [Example 659] | > 1 µM | – | – | – | > 1 µM |
| CN(c1ncccc1Cn1ccc2cnc(Nc3ccc(-c4cc[nH]c(=O)c4)cc3)nc21)S(C)(=O)=O [Example 669] | > 1 µM | – | – | – | > 1 µM |
| CN(c1ccccc1Cn1ccc2cnc(Nc3ccc(C4CNC(=O)CO4)cc3)nc21)S(C)(=O)=O (stereo not shown) [Example 676] | > 1 µM | < 20 nM | – | – | – |
| Cc1cn(S(=O)(=O)c2cccc3cccnc23)c2nc(Nc3ccc(N4CCC(N(C)C)CC4)cc3)ncc12 [Example 712] | > 1 µM | < 20 nM | – | < 20 nM | – |
| CN(c1ccccc1Cn1ccc2cnc(Nc3ccc(N4CCCC(O)C4)cc3)nc21)S(C)(=O)=O (stereo not shown) [Example 750] | > 1 µM | – | – | < 20 nM | – |
| CN(c1ncccc1Cn1ccc2cnc(Nc3ccc(N4CCCC(O)C4)cc3)nc21)S(C)(=O)=O (stereo not shown) [Example 753] | > 1 µM | – | – | – | – |

Continued, values first:

| EC50 (Phospho Src(Y416)) | IC50 (AURKB (Aurora B) enzyme) | IC50 (Recombinant Src enzyme) | IC50 (recombinant human FAK1) | EC50 [1] | Compound |
| --- | --- | --- | --- | --- | --- |
| > 1 µM | > 1000 nM | < 20 nM | – | – | O=C1CCc2cc(Nc3cc4c(cn3)cnn4Cc3ccccc3OC(F)F)ccc2N1 [Example 65] |
| > 1 µM | < 20 nM | – | < 20 nM | – | CN(C)S(=O)(=O)c1ccccc1Cn1ccc2cnc(Nc3ccc4c(c3)CCC(=O)N4)nc21 [Example 137] |
| > 1 µM | – | – | < 20 nM | – | O=C1CCc2cc(Nc3ncc4ccn(S(=O)(=O)c5ccccc5OC(F)F)c4n3)ccc2N1 [Example 151] |
| > 1 µM | – | > 1000 nM | – | – | CN(c1ncccc1Cn1ccc2cnc(Nc3cccc4ncccc34)nc21)S(C)(=O)=O [Example 160] |
| > 1 µM | < 20 nM | – | < 20 nM | – | O=C1CCc2cc(Nc3ncc4ccn(S(=O)(=O)c5ccccc5Cl)c4n3)ccc2N1 [Example 199] |
| > 1 µM | < 20 nM | – | – | – | N#Cc1ccccc1S(=O)(=O)n1ccc2cnc(Nc3ccc(C4CCN(CC(N)=O)CC4)cc3)nc21 [Example 251] |
| < 0.02 µM | – | – | – | – | O=S(=O)(c1ccccc1)n1ncc2cnc(Nc3ccc(N4CCNCC4)cc3)nc21 [Example 255] |
| > 1 µM | < 20 nM | – | < 20 nM | – | NC(=O)CN1CCC(c2ccc(Nc3ncc4ccn(S(=O)(=O)c5cccc6cccnc56)c4n3)cc2)CC1 [Example 256] |
| > 1 µM | – | – | – | > 1 µM | Cn1cc(Nc2ncc3ccn(S(=O)(=O)c4ccccc4C#N)c3n2)cn1 [Example 317] |
| > 1 µM | < 20 nM | – | < 20 nM | – | O=C(Nc1ccc(Nc2ncc3ccn(S(=O)(=O)c4cccc5cccnc45)c3n2)cc1)C1CC1 [Example 331] |
| > 1 µM | < 20 nM | – | < 20 nM | – | Cc1cc(Nc2cc3c(ccn3S(=O)(=O)c3cccc4cccnc34)cn2)ccc1N1CCNCC1 [Example 334] |
| > 1 µM | – | – | < 20 nM | – | COc1ccccc1S(=O)(=O)n1ccc2cnc(Nc3ccc(N4CCN(C(=O)C5CC5)CC4)cc3)nc21 [Example 350] |

Source: patent publication US20160222014A1, “COMPOUNDS FOR REGULATING FAK AND/OR SRC PATHWAYS” (ASANA BIOSCIENCES, LLC, priority 2013, published 2016)
